Source: patent US10000473B2, “Indazole derivatives useful as glucagon receptor antagonists” (Janssen Pharmaceutica NV, priority 2016, dated 2018)

target: T1, human GCGR (Homo sapiens, UniProt P47871); assay: Cellular functional assay, cAMP readout (glucagon-stimulated cAMP, LANCE TR-FRET); format: cell-based; details: HEK293 cells stably expressing full-length human GCGR; glucagon 100 pM; IC50 converted to Ki; read-out: Inhibition of cAMP Ki
T1 construct: expressed in transfected cells; host or cells: HEK293 (hGluc-1HEK), pcDNA3.1, G418 selection
T1 sequence (P47871 26-477): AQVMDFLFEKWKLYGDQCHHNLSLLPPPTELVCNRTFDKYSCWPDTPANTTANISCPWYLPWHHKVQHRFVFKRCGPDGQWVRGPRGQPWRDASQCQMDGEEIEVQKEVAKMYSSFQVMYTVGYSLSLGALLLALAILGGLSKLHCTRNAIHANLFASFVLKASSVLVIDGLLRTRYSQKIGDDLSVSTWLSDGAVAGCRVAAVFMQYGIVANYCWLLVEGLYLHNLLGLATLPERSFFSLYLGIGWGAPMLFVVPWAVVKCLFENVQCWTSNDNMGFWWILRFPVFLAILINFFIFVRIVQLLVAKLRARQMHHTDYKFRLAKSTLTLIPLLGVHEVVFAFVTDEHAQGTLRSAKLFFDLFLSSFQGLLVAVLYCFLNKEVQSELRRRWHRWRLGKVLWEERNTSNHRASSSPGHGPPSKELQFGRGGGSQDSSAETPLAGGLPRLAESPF
Experimental: IC50 Values in Cellular Functional Assays: cAMP Readout
Full-length human GCGR (Accession Number: NM000160) subcloned into pcDNA3.1 was stably transfected into HEK293 cells (hGluc-1HEK) and maintained under G418 selection (500 μg/mL). Cell cultures were maintained in DMEM/F12 media supplemented with 10% FBS and 1% GlutaMax™ Supplement (Available from ThermoFisher Scientific, catalog #35050061). Glucagon stimulated cAMP was quantified using LANCE technology as per manufacturer instructions. On the day of the experiment, spent media was removed and cells were washed with Hank's Buffered Saline solution (HBSS), and cells harvested with non-enzymatic cell dissociation solution, then washed once with HBSS. Cells were re-suspended in stimulation buffer at a concentration of 0.83×10^6 cells/ml and cAMP detection antibody was added. 6 μl/well of this solution was then dispensed in a 384 well plate (cell density 5000 cells/well). Test compound was serially diluted in DMSO and 50 nl were dispensed on top of the cell solution and allowed to incubate for 30 minutes. 6 μl of a 2× glucagon solution (final concentration in assay 100 pM) was then added and the reaction was terminated after 5 minutes with the addition of detection mix. The resulting mixture was incubated, protected from light for 1.5 h. cAMP levels were quantified by TR-FRET in an EnVision instrument against a known standard. IC50's were generated by using a non-linear regression macro driven in Excel and converted to Ki values.

| Ki | Structure (SMILES) |
| --- | --- |
| > 1300 nM | COc1ccc2cc(-c3ccc4nn(C(CC(C)C)c5ccc(C(=O)NCCC(=O)O)cc5)cc4c3)ccc2c1 (centres unmarked) [compound 82] |
| 800 nM | CCCC(c1ccc(C(=O)NCCC(=O)O)cc1)n1cc2cc(-c3ccc(C(C)(C)C)cc3)ccc2n1 (centres unmarked) [Compound #22, 3-(4-(1-(5-(4-(tert-Butyl)phenyl)-2H-indazol-2-yl)butyl)benzamido)propanoic acid] |
| 92 nM | Cc1c(-c2ccc(C(C)(C)C)cc2)ccc2c1cnn2C(CC(C)C)c1ccc(C(=O)NCCC(=O)O)cc1 (centres unmarked) [Compound #47, 3-(4-(1-(5-(4-(tert-Butyl)phenyl)-4-methyl-1H-indazol-1-yl)-3-methylbutyl)benzamido)propanoic acid] |
| 365 nM | Cc1cc(Cl)ccc1-c1ccc2c(cnn2C(CCC2CCCCC2)c2ccc(C(=O)NCCC(=O)O)nc2)c1 (centres unmarked) [compound 210] |
| 150 nM | CC(C)CC(c1ccc(C(=O)NCCC(=O)O)cc1)n1cc2cc(-c3ccc(C(F)(F)F)cc3Cl)ccc2n1 (centres unmarked) [Compound #225, 3-(4-(1-(5-(2-Chloro-4-(trifluoromethyl)phenyl)-2H-indazol-2-yl)-3-methylbutyl)benzamido)propanoic acid] |
| 40 nM | CC(C)CC(c1ccc(C(=O)NCCC(=O)O)cc1)n1cc2c(Cl)c(-c3ccc(C(F)(F)F)cc3)ccc2n1 (centres unmarked) [Compound #147, 3-(4-(1-(4-Chloro-5-(4-(trifluoromethyl)phenyl)-2H-indazol-2-yl)-3-methylbutyl)benzamido)prop-anoic acid] |
| 86 nM | CC(C)CC(c1ccc(C(=O)NCCC(=O)O)cc1)n1cc2cc(-c3ccc(C(C)(C)C)cc3)ccc2n1 (centres unmarked) [Compound #34, 3-(4-(1-(5-(4-(tert-butyl)phenyl)-2H-indazol-2-yl)-3-methylbutyl)benzamido)propanoic acid] |
| 242 nM | CC(C)CC(c1ccc(C(=O)NCCC(=O)O)cc1)n1cc2cc(-c3ccc(Cl)cc3Cl)ccc2n1 (centres unmarked) [Compound #226, 3-(4-(1-(5-(2,4-Dichlorophenyl)-2H-indazol-2-yl)-3-methylbutyl)benzamido)propanoic acid] |
| 200 nM | CC(C)(F)CC(c1ccc(C(=O)NCCC(=O)O)cc1)n1cc2cc(-c3ccc(C(F)(F)F)cc3)ccc2n1 (centres unmarked) [Compound #256, 3-(4-(3-Fluoro-3-methyl-1-(5-(4-(trifluoromethyl)phenyl)-2H-indazol-2-yl)butyl)benzamido)propanoic acid] |
| 550 nM | O=C(O)CCNC(=O)c1ccc(C(CCC(F)(F)C(F)(F)F)n2ncc3cc(-c4ccc(C(F)(F)F)cc4)ccc32)cc1 (centres unmarked) [compound 100] |
| 28 nM | Cc1cc(C(F)(F)F)ccc1-c1ccc2nn(C(CC(C)C)c3ccc(C(=O)NCCC(=O)O)cc3)cc2c1C (centres unmarked) [Compound #63, 3-(4-(3-Methyl-1-(4-methyl-5-(2-methyl-4-(trifluoromethyl)phenyl)-2H-indazol-2-yl)butyl)benzamido)propanoic acid] |
| 135 nM | CC(C)CC(c1ccc(C(=O)NCCC(=O)O)cc1)n1ncc2cc(-c3cc4ccccc4o3)ccc21 (centres unmarked) [compound 77] |
| 750 nM | CC(C)CC(c1ccc(C(=O)NCCC(=O)O)cc1)n1ncc2cc(-c3cnc4ccccc4c3)ccc21 (centres unmarked) [compound 46] |
| 280 nM | CC(C)CC(c1ccc(C(=O)NCCC(=O)O)cc1)n1ncc2cc(-c3cc4ccc(F)cc4s3)ccc21 (centres unmarked) [compound 126] |
| 90 nM | O=C(O)CCNC(=O)c1ccc(C(CC2CCCC2)n2cc3cc(-c4ccc(C(F)(F)F)cc4)ccc3n2)cc1 (centres unmarked) [compound 254] |
| 70 nM | CCOc1c(-c2ccc(C)cc2C)ccc2nn(C(CC(C)C)c3ccc(C(=O)NCCC(=O)O)nc3)cc12 (centres unmarked) [compound 182] |
| 600 nM | O=C(O)CCNC(=O)c1ccc(C(c2ccc(C(F)(F)F)cc2)n2cc3cc(-c4ccc(C(F)(F)F)cc4)ccc3n2)cc1 (centres unmarked) [Compound #66, 3-(4-((4-(Trifluoromethyl)phenyl)(5-(4-(trifluoromethyl)phenyl)-2H-indazol-2-yl)methyl)benzamido)propanoic acid] |
| 45 nM | CCCCCCC(c1ccc(C(=O)NCCC(=O)O)cc1)n1cc2cc(-c3ccc(C(F)(F)F)cc3)ccc2n1 (centres unmarked) [Compound #26] |
| 90 nM | Cc1cc(Cl)ccc1-c1ccc2c(cnn2C(CC(C)(C)C)c2ccc(C(=O)NCCC(=O)O)cc2)c1 (centres unmarked) [compound 151] |

| Ki | Structure (SMILES) |
| --- | --- |
| 145 nM | COc1c(-c2ccc(Cl)cc2C)ccc2c1cnn2C(CC(C)C)c1ccc(C(=O)NCCC(=O)O)cc1 (centres unmarked) [Compound #99, 3-(4-(1-(5-(4-Chloro-2-methylphenyl)-4-methoxy-1H-indazol-1-yl)-3-methylbutyl)benzamido)propanoic acid] |
| 800 nM | O=C(O)CCNC(=O)c1ccc(C(c2ccc(C(F)(F)F)cc2)n2ncc3cc(-c4ccc(C(F)(F)F)cc4)ccc32)cc1 (centres unmarked) [Compound #101, 3-(4-((4-(Trifluoromethyl)phenyl)(5-(4-(trifluoromethyl)phenyl)-1H-indazol-1-yl)methyl)benzamido)propanoic acid] |
| > 1300 nM | O=C(O)CCNC(=O)c1ccc(C(CCC(F)(F)F)n2ncc3cc(-c4ccc(C(F)(F)F)c(Cl)c4)ccc32)cc1 (centres unmarked) [Compound #111, 3-[[4-[1-[5-[3-Chloro-4-(trifluoromethyl)phenyl]indazol-1-yl]-4,4,4-trifluorobutyl]benzoyl]amino]propanoic acid] |
| 600 nM | CC(C)CC(c1ccc(C(=O)NCCC(=O)O)cc1)n1ncc2cc(-c3ccc(F)cc3)ccc21 (centres unmarked) [Compound #5] |
| 135 nM | CC(C)CC(c1ccc(C(=O)NCCC(=O)O)nc1)n1cc2cc(-c3cc4ccccc4o3)ccc2n1 (centres unmarked) [Compound #260, 3-(5-(1-(5-(Benzofuran-2-yl)-2H-indazol-2-yl)-3-methylbutyl)picolinamido)propanoic acid] |
| 420 nM | CC(C)CC(c1ccc(C(=O)NCCC(=O)O)nc1)n1ncc2cc(-c3ccc(Cl)cc3Cl)ccc21 (centres unmarked) [Compound #113, 3-(5-(1-(5-(2,4-Dichlorophenyl)-1H-indazol-1-yl)-3-methylbutyl)picolinamido)propanoic acid] |
| 485 nM | Cc1ccc(-c2ccc3c(cnn3C(CC(C)C)c3ccc(C(=O)NCCC(=O)O)cc3)c2C)c(C)c1 (centres unmarked) [Compound #177, 3-(4-(1-(5-(2,4-Dimethylphenyl)-4-methyl-1H-indazol-1-yl)-3-methylbutyl)benzamido)propanoic acid] |
| 70 nM | Cc1c(-c2ccc(C(F)(F)F)c(Cl)c2)ccc2nn(C(CC(C)C)c3ccc(C(=O)NCCC(=O)O)cc3)cc12 (centres unmarked) [Compound #149, 3-(4-(1-(5-(3-Chloro-4-(trifluoromethyl)phenyl)-4-methyl-2H-indazol-2-yl)-3-methylbutyl)benzamido)propanoic acid] |
| 35 nM | Cc1c(-c2ccc(C(C)(C)C)cc2)ccc2nn(C(CC(C)C)c3ccc(C(=O)NCCC(=O)O)cc3)cc12 (centres unmarked) [Compound #78, 3-(4-(1-(5-(4-(tert-Butyl)phenyl)-4-methyl-2H-indazol-2-yl)-3-methylbutyl)benzamido)propanoic acid] |
| 260 nM | O=C(O)CCNC(=O)c1ccc(C(CCC2CCC2)n2ncc3cc(-c4ccc(C(F)(F)F)cc4)ccc32)cc1 (centres unmarked) [Compound #239, 3-(4-(3-Cyclobutyl-1-(5-(4-(trifluoromethyl)phenyl)-1H-indazol-1-yl)propyl)benzamido)propanoic acid] |
| 336 nM | CC(C)CC(c1ccc(C(=O)NCCC(=O)O)nc1)n1cc2cc(-c3ccc(Cl)cc3Cl)ccc2n1 (centres unmarked) [Compound #83, 3-(5-(1-(5-(2,4-Dichlorophenyl)-2H-indazol-2-yl)-3-methylbutyl)picolinamido)propanoic acid] |
| 88 nM | CC(C)CC(c1ccc(C(=O)NCCC(=O)O)cc1)n1cc2cc(-c3cc4cc(F)ccc4s3)ccc2n1 (centres unmarked) [compound 129] |
| 190 nM | CC(C)CC(c1ccc(C(=O)NCCC(=O)O)cc1)n1ncc2cc(-c3ccc4ccccc4c3)ccc21 (centres unmarked) [compound 71] |
| 500 nM | CC(C)CC(c1ccc(C(=O)NCCC(=O)O)nc1)n1ncc2cc(-c3cc4ccccc4o3)ccc21 (centres unmarked) [Compound #79, 3-(5-(1-(5-(Benzofuran-2-yl)-1H-indazol-1-yl)-3-methylbutyl)picolinamido)propanoic acid] |
| 155 nM | CCCCCCC(c1ccc(C(=O)NCCC(=O)O)cc1)n1ncc2cc(-c3ccc(C(F)(F)F)cc3)ccc21 (centres unmarked) [compound 159] |
| 3200 nM | CC(c1ccc(C(=O)NCCC(=O)O)cc1)n1cc2cc(-c3ccc(C(C)(C)C)cc3)ccc2n1 (centres unmarked) [Compound #161, 3-(4-(1-(5-(4-(tert-butyl)phenyl)-2H-indazol-2-yl)ethyl)benzamido) propanoic acid] |
| 65 nM | Cc1cc2nn(C(CC(C)C)c3ccc(C(=O)NCCC(=O)O)nc3)cc2cc1-c1ccc(C(F)(F)F)cc1Cl (centres unmarked) [Compound #242, 3-[[5-[1-[5-[2-Chloro-4-(trifluoromethyl)phenyl]-6-methyl-indazol-2-yl]-3-methyl-butyl]pridine-2-carbonyl]amino]propanoic acid] |
| 26 nM | Cc1cc(Cl)ccc1-c1ccc2nn(C(CC(C)(C)C)c3ccc(C(=O)NCCC(=O)O)nc3)cc2c1 (centres unmarked) [compound 257] |
| 200 nM | O=C(O)CCNC(=O)c1ccc(C(CC2CC2)n2cc3cc(-c4ccc(C(F)(F)F)cc4)ccc3n2)cc1 (centres unmarked) [compound 139] |
